System: 855422-203-R-J1-PDC complex spheroids, viability
Experiment: Anticancer human tumor 855422-203-R-J1-PDC patient-derived bladder carcinoma cell line growth inhibition [CLK]
Conditions: for IC50: curve of first compound; for viability, T/C: stronger effect = lower value
Outline: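 Patient-derived tumor cells grown as complex spheroids with HUVEC endothelial cells and mesenchymal stem cells, treated with drug combinations. Concentrations descend in half-log steps from near clinical Cmax, or from 10 microM if Cmax unknown.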

[1] = second compound 0.0316 µM, first compound 0.0316 µM
[2] = second compound 0.0316 µM, first compound 0.1 µM
[3] = second compound 0.0316 µM, first compound 0.316 µM
[4] = second compound 0.0316 µM, first compound 1 µM
[5] = second compound 0.0316 µM, first compound 3.16 µM
[6] = second compound 0.0316 µM, first compound 10 µM
[7] = second compound 0.1 µM, first compound 0.0316 µM
[8] = second compound 0.1 µM, first compound 0.1 µM
[9] = second compound 0.1 µM, first compound 0.316 µM
[10] = second compound 0.1 µM, first compound 1 µM
[11] = second compound 0.1 µM, first compound 3.16 µM
[12] = second compound 0.1 µM, first compound 10 µM
[13] = second compound 0.316 µM, first compound 0.0316 µM
[14] = second compound 0.316 µM, first compound 0.1 µM
[15] = second compound 0.316 µM, first compound 0.316 µM
[16] = second compound 0.316 µM, first compound 1 µM
[17] = second compound 0.316 µM, first compound 3.16 µM
[18] = second compound 0.316 µM, first compound 10 µM
[19] = second compound 1 µM, first compound 0.0316 µM
[20] = second compound 1 µM, first compound 0.1 µM
[21] = second compound 1 µM, first compound 0.316 µM
[22] = second compound 1 µM, first compound 1 µM
[23] = second compound 1 µM, first compound 3.16 µM
[24] = second compound 1 µM, first compound 10 µM
[25] = second compound 3.16 µM, first compound 0.0316 µM
[26] = second compound 3.16 µM, first compound 0.1 µM
[27] = second compound 3.16 µM, first compound 0.316 µM
[28] = second compound 3.16 µM, first compound 1 µM
[29] = second compound 3.16 µM, first compound 3.16 µM
[30] = second compound 3.16 µM, first compound 10 µM
[31] = second compound 10 µM, first compound 0.0316 µM
[32] = second compound 10 µM, first compound 0.1 µM
[33] = second compound 10 µM, first compound 0.316 µM
[34] = second compound 10 µM, first compound 1 µM
[35] = second compound 10 µM, first compound 3.16 µM
[36] = second compound 10 µM, first compound 10 µM
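Further: spheroids exposed to drugs for seven days before readout.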
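Wherever viability, T/C is given: 100% = DMSO vehicle control wells.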

In the case of `Nc1ccn(C2OC(CO)C(O)C2(F)F)c(=O)n1` (centres undefined) + CN1CCN(c2cc(C(=O)Nc3cc4cc(-c5cnn(C)c5)ccc4cn3)ccn2)CC1, the IC50 (second compound 0.0316 µM) is reported as < 31.6 nM, the IC50 (second compound 0.1 µM) is reported as < 31.6 nM and the IC50 (second compound 0.316 µM) is reported as < 31.6 nM. For the same compound, the IC50 (second compound 1 µM) was < 31.6 nM, the IC50 (second compound 3.16 µM) was < 31.6 nM and the IC50 (second compound 10 µM) was < 31.6 nM. It also gave a viability, T/C [1] of 27.6%, a viability, T/C [2] of 15.1% and a viability, T/C [3] of 15.8%. It also gave a viability, T/C [4] of 11.4%, a viability, T/C [5] of 9.09% and a viability, T/C [6] of 6.12%. It also gave a viability, T/C [7] of 24.4%, a viability, T/C [8] of 15.4% and a viability, T/C [9] of 11.5%. The viability, T/C [10] was 11.9%, the viability, T/C [11] was 5.33% and the viability, T/C [12] was 4.86%. It also gave a viability, T/C [13] of 4.07%, a viability, T/C [14] of 3.72% and a viability, T/C [15] of 4.47%. The viability, T/C [16] was 2.24%, the viability, T/C [17] was 1.5% and the viability, T/C [18] was 0.93%. The viability, T/C [19] was 1.32%, the viability, T/C [20] was 0.15% and the viability, T/C [21] was 2.17%. For the same compound, the viability, T/C [22] was 0.1%, the viability, T/C [23] was 0.13% and the viability, T/C [24] was 0.13%. The viability, T/C [25] was 0.98%, the viability, T/C [26] was 3.09% and the viability, T/C [27] was 0.39%. The viability, T/C [28] was 0.24%, the viability, T/C [29] was 1.1% and the viability, T/C [30] was 0.29%. It also gave a viability, T/C [31] of 0.28%, a viability, T/C [32] of 0.41% and a viability, T/C [33] of 0.24%. For the same compound, the viability, T/C [34] was 0.83%, the viability, T/C [35] was 0.25% and the viability, T/C [36] was 0.23%.

In the case of `O=c1[nH]cc(F)c(=O)[nH]1` + CNC(=O)c1ccc(Nc2nc(OC3CCCC3)c3c(-c4ccc5nc(C)oc5c4)c[nH]c3n2)c(OC)c1, the IC50 (second compound 0.0316 µM) is reported as 9090 nM, the IC50 (second compound 0.1 µM) is reported as 527 nM and the IC50 (second compound 0.316 µM) is reported as < 31.6 nM. For the same compound, the IC50 (second compound 1 µM) was < 31.6 nM, the IC50 (second compound 3.16 µM) was < 31.6 nM and the IC50 (second compound 10 µM) was < 31.6 nM. For the same compound, the viability, T/C [1] was 135%, the viability, T/C [2] was 119% and the viability, T/C [3] was 98.4%. It also gave a viability, T/C [4] of 72.3%, a viability, T/C [5] of 67.5% and a viability, T/C [6] of 47.9%. For the same compound, the viability, T/C [7] was 65.5%, the viability, T/C [8] was 65.7% and the viability, T/C [9] was 56.4%. It also gave a viability, T/C [10] of 40.3%, a viability, T/C [11] of 40.8% and a viability, T/C [12] of 44.9%. It also gave a viability, T/C [13] of 26.4%, a viability, T/C [14] of 22.8% and a viability, T/C [15] of 22.1%. For the same compound, the viability, T/C [16] was 18.4%, the viability, T/C [17] was 19.7% and the viability, T/C [18] was 18.9%. The viability, T/C [19] was 23.3%, the viability, T/C [20] was 23.9% and the viability, T/C [21] was 27.6%. The viability, T/C [22] was 17.3%, the viability, T/C [23] was 14.5% and the viability, T/C [24] was 17.9%. For the same compound, the viability, T/C [25] was 25.1%, the viability, T/C [26] was 23.8% and the viability, T/C [27] was 22.1%. The viability, T/C [28] was 16.3%, the viability, T/C [29] was 12.7% and the viability, T/C [30] was 14.7%. The viability, T/C [31] was 21.5%, the viability, T/C [32] was 23.3% and the viability, T/C [33] was 20.2%. For the same compound, the viability, T/C [34] was 17.9%, the viability, T/C [35] was 14.7% and the viability, T/C [36] was 13.6%.

Reference: PubChem BioAssay AID2060609 (Molecular Pharmacology Branch, DTP, NCI, 2025)
